We go through 15 compounds from patent US12497408B2, “Tetracyclic compounds and methods for the treatment of Zika virus infection” (priority 2021, dated 2025).

The assay deals with ZIKV. As to the kind of experiment: ZIKV reporter virus-based antiviral screening on Huh7 cells. As to conditions: Zika virus, Huh-7, 48 h, Huh7 cells infected with recombinant luciferase reporter ZIKV (MOI about 0.1), luciferase signal. Format: cell-based, Zika virus. The method in brief: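 Huh7 cells in 2% FBS assay medium infected at MOI about 0.1 with Renilla or Nano luciferase ZIKV premixed with nine-point compound dilutions, 48 hrs at 37° C. Luciferase signal normalized to DMSO controls as 100%; viability optionally by CellTiter-Glo with Rlu virus.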
A general note: A reporter such as luciferase makes a cellular process visible.

As a reminder, the EC50 is the concentration that produces a half-maximal response. In the case of `CCc1nc([C@@H]2CCCN2C(=O)[C@@H](NC(=O)OC)C(C)C)[nH]c1-c1cc2c3c(c1)OCc1cc(-c4[nH]c([C@@H]5CCCN5C(=O)[C@@H](NC(=O)OC)C(C)C)nc4CC)cc(c1-3)OC2` [Compound 18, dimethyl ((2S,2′S)-((2S,2′S)-((5,10-dihydrochromeno[5,4,3-cde]chromene-2,7-diyl)bis(4-ethyl-1H-imidazole-5,2-diyl))bis(pyrrolidine-2,1-diyl))bis(3-methyl-1-oxobutane-1,2-diyl))dicarbamate], the EC50 is 255 nM. For the compound `COC(=O)N[C@H](C(=O)N1[C@H](c2ncc(-c3cc4c5c(c3)OCc3cc(-c6[nH]c([C@@H]7C[C@@H]8CCC[C@@H]8N7C(=O)[C@@H](NC(=O)OC)C(C)C)nc6Cl)cc(c3-5)OC4)[nH]2)C[C@@H]2CCC[C@@H]21)C(C)C` [Compound 30, methyl ((S)-1-((2S,3aS,6aS)-2-(4-chloro-5-(7-(2-((2S,3aS,6aS)-1-((methoxycarbonyl)-L-valyl)octahydrocyclopenta[b]pyrrol-2-yl)-1H-imidazol-5-yl)-5,10-dihydrochromeno[5,4,3-cde]chromen-2-yl)-1H-imidazol-2-yl)hexahydrocyclopenta[b]pyrrol-1(2H)-yl)-3-methyl-1-oxobutan-2-yl)carbamate], the 50% effective concentration (EC50) was found to be 8 nM. Under `COC(=O)N[C@H](C(=O)N1CC(F)(F)C[C@H]1c1nc(Cl)c(-c2cc3c4c(c2)OCc2cc(-c5[nH]c([C@@H]6CC(F)(F)CN6C(=O)[C@@H](NC(=O)OC)C(C)C)nc5Cl)cc(c2-4)OC3)[nH]1)C(C)C` [Compound 56, dimethyl ((2S,2′S)-((5S,5′S)-((5,10-dihydrochromeno[5,4,3-cde]chromene-2,7-diyl)bis(4-chloro-1H-imidazole-5,2-diyl))bis(3,3-difluoropyrrolidine-5,1-diyl))bis(3-methyl-1-oxobutane-1,2-diyl))dicarbamate] stands 3.8 nM.

Consider `COC(=O)N[C@H](C(=O)N1CC(C)(C)C[C@H]1c1nc(Cl)c(-c2cc3c4c(c2)OCc2cc(-c5[nH]c([C@@H]6CC(C)(C)CN6C(=O)[C@@H](NC(=O)OC)C(C)C)nc5Cl)cc(c2-4)OC3)[nH]1)C(C)C` [Compound 7, dimethyl ((2S,2′S)-((5S,5′S)-((5,10-dihydrochromeno[5,4,3-cde]chromene-2,7-diyl)bis(4-chloro-1H-imidazole-5,2-diyl))bis(3,3-dimethylpyrrolidine-5,1-diyl))bis(3-methyl-1-oxobutane-1,2-diyl))dicarbamate], for which the EC50 worked out at 4.2 nM. With `COC(=O)N[C@H](C(=O)N1C[C@@H](C)C[C@H]1c1nc(Cl)c(-c2cc3c4c(c2)OCc2cc(-c5[nH]c([C@@H]6C[C@H](C)CN6C(=O)[C@@H](NC(=O)OC)C(C)C)nc5C(C)C)cc(c2-4)OC3)[nH]1)C(C)C` [Compound 80, methyl ((S)-1-((2S,4S)-2-(5-(7-(4-chloro-2-((2S,4S)-1-((methoxycarbonyl)-L-valyl)-4-methylpyrrolidin-2-yl)-1H-imidazol-5-yl)-5,10-dihydrochromeno[5,4,3-cde]chromen-2-yl)-4-isopropyl-1H-imidazol-2-yl)-4-methylpyrrolidin-1-yl)-3-methyl-1-oxobutan-2-yl)carbamate] the figure was 5.7 nM; with `CC[C@H](C)[C@H](NC(=O)OC)C(=O)N1CCC[C@@]1(C)c1nc(Cl)c(-c2cc3c4c(c2)OCc2cc(-c5[nH]c([C@]6(C)CCCN6C(=O)[C@@H](NC(=O)OC)[C@@H](C)CC)nc5Cl)cc(c2-4)OC3)[nH]1` [Compound 66, dimethyl ((2S,2′S,3S,3′S)-((2S,2′S)-((5,10-dihydrochromeno[5,4,3-cde]chromene-2,7-diyl)bis(4-chloro-1H-imidazole-5,2-diyl))bis(2-methylpyrrolidine-2,1-diyl))bis(3-methyl-1-oxopentane-1,2-diyl))dicarbamate], 44 nM. On to `CC[C@H](C)[C@H](NC(=O)OC)C(=O)N1CCCC[C@H]1c1nc(Cl)c(-c2cc3c4c(c2)OCc2cc(-c5[nH]c([C@@H]6CCCCN6C(=O)[C@@H](NC(=O)OC)[C@@H](C)CC)nc5Cl)cc(c2-4)OC3)[nH]1` [Compound 14, dimethyl ((2S,2′S,3S,3′S)-((2S,2′S)-((5,10-dihydrochromeno[5,4,3-cde]chromene-2,7-diyl)bis(4-chloro-1H-imidazole-5,2-diyl))bis(piperidine-2,1-diyl))bis(3-methyl-1-oxopentane-1,2-diyl))dicarbamate], for which the EC50 turned out to be 4.6 nM.

Turning to `CC[C@H](C)[C@H](NC(=O)OC)C(=O)N1CC2(CC2)C[C@H]1c1nc(Cl)c(-c2cc3c4c(c2)OCc2cc(-c5[nH]c([C@@H]6CC7(CC7)CN6C(=O)[C@@H](NC(=O)OC)[C@@H](C)CC)nc5C(C)C)cc(c2-4)OC3)[nH]1` [Compound 16, methyl ((2S,3S)-1-((S)-6-(5-(7-(4-chloro-2-((S)-5-((methoxycarbonyl)-L-isoleucyl)-5-azaspiro[2.4]heptan-6-yl)-1H-imidazol-5-yl)-5,10-dihydrochromeno[5,4,3-cde]chromen-2-yl)-4-isopropyl-1H-imidazol-2-yl)-5-azaspiro[2.4]heptan-5-yl)-3-methyl-1-oxopentan-2-yl)carbamate], the EC50 came to 2.3 nM. With `COC(=O)N[C@H](C(=O)N1[C@@H](C)CC[C@H]1c1nc(C(C)C)c(-c2cc3c4c(c2)OCc2cc(-c5[nH]c([C@@H]6CC[C@H](C)N6C(=O)[C@@H](NC(=O)OC)C(C)C)nc5C(C)C)cc(c2-4)OC3)[nH]1)C(C)C` [Compound 40, dimethyl ((2S,2′S)-((2S,2′S,5S,5′S)-((5,10-dihydrochromeno[5,4,3-cde]chromene-2,7-diyl)bis(4-isopropyl-1H-imidazole-5,2-diyl))bis(2-methylpyrrolidine-5,1-diyl))bis(3-methyl-1-oxobutane-1,2-diyl))dicarbamate] the figure was 5.6 nM. As to `COC(=O)N[C@H](C(=O)N1[C@@H](C)CC[C@H]1c1nc(Cl)c(-c2cc3c4c(c2)OCc2cc(-c5[nH]c([C@@H]6CC[C@H](C)N6C(=O)[C@@H](NC(=O)OC)C6C[C@@H](C)O[C@H](C)C6)nc5Cl)cc(c2-4)OC3)[nH]1)C1C[C@@H](C)O[C@H](C)C1` (stereo partly drawn) [Compound 21, dimethyl ((1S,1′S)-((2S,2′S,5S,5′S)-((5,10-dihydrochromeno[5,4,3-cde]chromene-2,7-diyl)bis(4-chloro-1H-imidazole-5,2-diyl))bis(2-methylpyrrolidine-5,1-diyl))bis(1-((2R,6R)-2,6-dimethyltetrahydro-2H-pyran-4-yl)-2-oxoethane-2,1-diyl))dicarbamate], the EC50 was 9.3 nM.

For the compound `COC(=O)N[C@H](C(=O)N1CC2(CC2)C[C@H]1c1nc(Cl)c(-c2cc3c4c(c2)OCc2cc(-c5[nH]c([C@@H]6CC7(CC7)CN6C(=O)[C@@H](NC(=O)OC)C(C)C)nc5Cl)cc(c2-4)OC3)[nH]1)C(C)C` [Compound 59, dimethyl ((2S,2′S)-((6S,6′S)-((5,10-dihydrochromeno[5,4,3-cde]chromene-2,7-diyl)bis(4-chloro-1H-imidazole-5,2-diyl))bis(5-azaspiro[2.4]heptane-6,5-diyl))bis(3-methyl-1-oxobutane-1,2-diyl))dicarbamate], the EC50 came to 1.5 nM. With `COC(=O)N[C@H](C(=O)N1CC2(CC2)C[C@H]1c1nc(Cl)c(-c2cc3c4c(c2)OCc2cc(-c5[nH]c([C@@H]6CC7(CC7)CN6C(=O)[C@@H](NC(=O)OC)C(C)C)nc5C(C)C)cc(c2-4)OC3)[nH]1)C(C)C` [Compound 15, methyl ((S)-1-((S)-6-(5-(7-(4-chloro-2-((S)-5-((methoxycarbonyl)-L-valyl)-5-azaspiro[2.4]heptan-6-yl)-1H-imidazol-5-yl)-5,10-dihydrochromeno[5,4,3-cde]chromen-2-yl)-4-isopropyl-1H-imidazol-2-yl)-5-azaspiro[2.4]heptan-5-yl)-3-methyl-1-oxobutan-2-yl)carbamate] the figure was 3.7 nM; with `CC[C@H](C)[C@H](NC(=O)OC)C(=O)N1[C@@H](C)CC[C@H]1c1nc(Cl)c(-c2cc3c4c(c2)OCc2cc(-c5[nH]c([C@@H]6CC[C@H](C)N6C(=O)[C@@H](NC(=O)OC)[C@@H](C)CC)nc5Cl)cc(c2-4)OC3)[nH]1` [Compound 28, dimethyl ((2S,2′S,3S,3′S)-((2S,2′S,5S,5′S)-((5,10-dihydrochromeno[5,4,3-cde]chromene-2,7-diyl)bis(4-chloro-1H-imidazole-5,2-diyl))bis(2-methylpyrrolidine-5,1-diyl))bis(3-methyl-1-oxopentane-1,2-diyl))dicarbamate], 1.6 nM; with `COC(=O)N[C@H](C(=O)N1C[C@@H](C)C[C@H]1c1nc(Cl)c(-c2cc3c4c(c2)OCc2cc(-c5[nH]c([C@@H]6C[C@H](C)CN6C(=O)[C@@H](NC(=O)OC)C(C)C)nc5Cl)cc(c2-4)OC3)[nH]1)C(C)C` [Compound 48, dimethyl ((2S,2′S)-((3S,3′S,5S,5′S)-((5,10-dihydrochromeno[5,4,3-cde]chromene-2,7-diyl)bis(4-chloro-1H-imidazole-5,2-diyl))bis(3-methylpyrrolidine-5,1-diyl))bis(3-methyl-1-oxobutane-1,2-diyl))dicarbamate], 4.6 nM. In the case of `CC[C@@H](C)[C@H](NC(=O)OC)C(=O)N1[C@@H](C)CC[C@H]1c1nc(Cl)c(-c2cc3c4c(c2)OCc2cc(-c5[nH]c([C@@H]6CC[C@H](C)N6C(=O)[C@@H](NC(=O)OC)[C@H](C)CC)nc5Cl)cc(c2-4)OC3)[nH]1` [Compound 33, dimethyl ((2S,2′S,3R,3′R)-((2S,2′S,5S,5′S)-((5,10-dihydrochromeno[5,4,3-cde]chromene-2,7-diyl)bis(4-chloro-1H-imidazole-5,2-diyl))bis(2-methylpyrrolidine-5,1-diyl))bis(3-methyl-1-oxopentane-1,2-diyl))dicarbamate], the EC50 turned out to be 0.9 nM.
